Laboratory results as given in patent publication US20120156771A1, “FUNCTIONAL DISRUPTION OF AN IMMUNOGLOBULIN GENE IN AN AVIAN EMBRYONIC STEM CELL” (Origen Therapeutics, Inc., priority 2002, published 2012).

Test system: chicken embryonic stem cells
Assay: Titration kill curve: morphology of cES cells under puromycin or neomycin selection
Assay type: cell-based
Set-up: key to Morphology of cES cells: ES: ES cells are present.; diff: ES cells are differentiated.; gone: no morphologically recognizable cells are present
Description: In a preferred embodiment, the concentration of puromycin required for selecting transfected cells is calculated as a titration kill curve. Titration kill curves for chicken embryonic stem cells are established by exposing cells in culture to puromycin concentrations varying from 0.0 to 1.0 μg/ml for 10 days (Table 7) and neomycin concentrations varying from 0.0 to 200 μg/ml (Table 8). The medium is changed every 2 days and fresh puromycin or neomycin is added. […] Puromycin concentrations of 0.3-1.0 μg/ml are used for selection of the transfected cultures. Neomycin concentrations over 40 μg/ml eliminated all cES cells within 7 days (Table 8).

COc1ccc(C[C@H](N)C(=O)N[C@H]2[C@@H](O)[C@H](n3cnc4c(N(C)C)ncnc43)O[C@@H]2CO)cc1 [puromycin]
Presence of ES cells in wells (0.3 μg/ml puromycin, after 3 changes of medium with fresh puromycin over a six day period): absent from all wells | Morphology of cES cells (puromycin 0.1 μg/ml, day 1 under selection): ES | Morphology of cES cells (puromycin 0.1 μg/ml, day 2 under selection): ES | Morphology of cES cells (puromycin 0.1 μg/ml, day 3 under selection): ES | Morphology of cES cells (puromycin 0.1 μg/ml, day 4 under selection): ES | Morphology of cES cells (puromycin 0.1 μg/ml, day 5 under selection): ES | Morphology of cES cells (puromycin 0.1 μg/ml, day 6 under selection): ES | Morphology of cES cells (puromycin 0.1 μg/ml, day 7 under selection): ES | Morphology of cES cells (puromycin 0.1 μg/ml, day 8 under selection): ES | Morphology of cES cells (puromycin 0.1 μg/ml, day 9 under selection): ES | Morphology of cES cells (puromycin 0.1 μg/ml, day 10 under selection): ES | Morphology of cES cells (puromycin 0.2 μg/ml, day 1 under selection): ES | Morphology of cES cells (puromycin 0.2 μg/ml, day 2 under selection): ES | Morphology of cES cells (puromycin 0.2 μg/ml, day 3 under selection): ES | Morphology of cES cells (puromycin 0.2 μg/ml, day 4 under selection): ES | Morphology of cES cells (puromycin 0.2 μg/ml, day 5 under selection): ES | Morphology of cES cells (puromycin 0.2 μg/ml, day 6 under selection): ES | Morphology of cES cells (puromycin 0.2 μg/ml, day 7 under selection): ES | Morphology of cES cells (puromycin 0.2 μg/ml, day 8 under selection): ES | Morphology of cES cells (puromycin 0.2 μg/ml, day 9 under selection): ES | Morphology of cES cells (puromycin 0.2 μg/ml, day 10 under selection): ES | Morphology of cES cells (puromycin 0.25 μg/ml, day 1 under selection): ES | Morphology of cES cells (puromycin 0.25 μg/ml, day 2 under selection): ES | Morphology of cES cells (puromycin 0.25 μg/ml, day 3 under selection): ES | Morphology of cES cells (puromycin 0.25 μg/ml, day 4 under selection): ES | Morphology of cES cells (puromycin 0.25 μg/ml, day 5 under selection): ES | Morphology of cES cells (puromycin 0.25 μg/ml, day 6 under selection): diff | Morphology of cES cells (puromycin 0.25 μg/ml, day 7 under selection): diff | Morphology of cES cells (puromycin 0.3 μg/ml, day 1 under selection): ES | Morphology of cES cells (puromycin 0.3 μg/ml, day 2 under selection): ES | Morphology of cES cells (puromycin 0.3 μg/ml, day 3 under selection): diff | Morphology of cES cells (puromycin 0.3 μg/ml, day 6 under selection): gone | Morphology of cES cells (puromycin 0.3 μg/ml, day 7 under selection): gone | Morphology of cES cells (puromycin 0.3 μg/ml, day 8 under selection): gone | Morphology of cES cells (puromycin 0.3 μg/ml, day 9 under selection): gone | Morphology of cES cells (puromycin 0.3 μg/ml, day 10 under selection): gone | Morphology of cES cells (puromycin 0.4 μg/ml, day 1 under selection): ES | Morphology of cES cells (puromycin 0.4 μg/ml, day 2 under selection): diff | Morphology of cES cells (puromycin 0.4 μg/ml, day 3 under selection): gone | Morphology of cES cells (puromycin 0.4 μg/ml, day 4 under selection): gone | Morphology of cES cells (puromycin 0.4 μg/ml, day 5 under selection): gone | Morphology of cES cells (puromycin 0.4 μg/ml, day 6 under selection): gone | Morphology of cES cells (puromycin 0.4 μg/ml, day 7 under selection): gone | Morphology of cES cells (puromycin 0.4 μg/ml, day 8 under selection): gone | Morphology of cES cells (puromycin 0.4 μg/ml, day 9 under selection): gone | Morphology of cES cells (puromycin 0.4 μg/ml, day 10 under selection): gone | Morphology of cES cells (puromycin 0.5 μg/ml, day 1 under selection): diff | Morphology of cES cells (puromycin 0.5 μg/ml, day 2 under selection): gone | Morphology of cES cells (puromycin 0.5 μg/ml, day 3 under selection): gone | Morphology of cES cells (puromycin 0.5 μg/ml, day 4 under selection): gone | Morphology of cES cells (puromycin 0.5 μg/ml, day 5 under selection): gone | Morphology of cES cells (puromycin 0.5 μg/ml, day 6 under selection): gone | Morphology of cES cells (puromycin 0.5 μg/ml, day 7 under selection): gone | Morphology of cES cells (puromycin 0.5 μg/ml, day 8 under selection): gone | Morphology of cES cells (puromycin 0.5 μg/ml, day 9 under selection): gone | Morphology of cES cells (puromycin 0.5 μg/ml, day 10 under selection): gone | Morphology of cES cells (puromycin 0.6 μg/ml, day 1 under selection): diff | Morphology of cES cells (puromycin 0.6 μg/ml, day 2 under selection): gone | Morphology of cES cells (puromycin 0.6 μg/ml, day 3 under selection): gone | Morphology of cES cells (puromycin 0.6 μg/ml, day 4 under selection): gone | Morphology of cES cells (puromycin 0.6 μg/ml, day 5 under selection): gone | Morphology of cES cells (puromycin 0.6 μg/ml, day 6 under selection): gone | Morphology of cES cells (puromycin 0.6 μg/ml, day 7 under selection): gone | Morphology of cES cells (puromycin 0.6 μg/ml, day 8 under selection): gone | Morphology of cES cells (puromycin 0.6 μg/ml, day 9 under selection): gone | Morphology of cES cells (puromycin 0.6 μg/ml, day 10 under selection): gone | Morphology of cES cells (puromycin 0.7 μg/ml, day 1 under selection): diff | Morphology of cES cells (puromycin 0.7 μg/ml, day 2 under selection): gone | Morphology of cES cells (puromycin 0.7 μg/ml, day 3 under selection): gone | Morphology of cES cells (puromycin 0.7 μg/ml, day 4 under selection): gone | Morphology of cES cells (puromycin 0.7 μg/ml, day 5 under selection): gone | Morphology of cES cells (puromycin 0.7 μg/ml, day 6 under selection): gone | Morphology of cES cells (puromycin 0.7 μg/ml, day 7 under selection): gone | Morphology of cES cells (puromycin 0.7 μg/ml, day 8 under selection): gone | Morphology of cES cells (puromycin 0.7 μg/ml, day 9 under selection): gone | Morphology of cES cells (puromycin 0.7 μg/ml, day 10 under selection): gone | Morphology of cES cells (puromycin 0.8 μg/ml, day 1 under selection): gone | Morphology of cES cells (puromycin 0.8 μg/ml, day 2 under selection): gone | Morphology of cES cells (puromycin 0.8 μg/ml, day 3 under selection): gone | Morphology of cES cells (puromycin 0.8 μg/ml, day 4 under selection): gone | Morphology of cES cells (puromycin 0.8 μg/ml, day 5 under selection): gone | Morphology of cES cells (puromycin 0.8 μg/ml, day 6 under selection): gone | Morphology of cES cells (puromycin 0.8 μg/ml, day 7 under selection): gone | Morphology of cES cells (puromycin 0.8 μg/ml, day 8 under selection): gone | Morphology of cES cells (puromycin 0.8 μg/ml, day 9 under selection): gone | Morphology of cES cells (puromycin 0.8 μg/ml, day 10 under selection): gone
